Measured values: patent US20240285599A1, “Mature-Hepatocyte Transdifferentiation Suppressing Composition” (OSAKA UNIVERSITY, priority 2021, published 2024)

What was measured:
[1] = tested on: TRAF3/PTEN knockdown HepG2 cell; assay: Cell proliferation assay (IncuCyte) of TRAF3/PTEN knockdown HepG2; type: cell-based, human
Experimental: (§1) Hepatocytes or cholangiocarcinoma cells were inoculated on a 96-well plate, and their cell proliferation was analyzed with IncuCyte (trademark) Si (Sartorius AG, Germany) in accordance with the manufacturer's instructions.
Specifically, 24 hours after the start of the culture of each of the PTKD #1HepG2 and the PTKD #1PHH obtained in Test Example 5, NIKSMI described above was added at a concentration of 9 μM. 48 Hours after that, the cells were recovered, and the mRNA of KRT19 was quantified, followed by immunoblotting.
Specifically, the NIK KD #1 or the NIK KD #2 was transfected into the PTKD #1HepG2 and the PTKD #1PHH obtained in Test Example 5 to provide a PTKDNIK #1 and a PTKDNIK #2, respectively. 72 Hours after the start of the culture of each of the cells, the cell was recovered, and the mRNA of KRT19 was quantified, followed by immunoblotting.
The above-mentioned cell proliferation analysis and the production of the cell growth curves were performed with IncuCyte (trademark).

[2] = tested on: human cholangiocarcinoma cell line HuCCT1; assay: Cell proliferation assay (IncuCyte) of cholangiocarcinoma cell line HuCCT1; type: cell-based
Experimental: (§2) A human hepatoma cell line HepG2, and human cholangiocarcinoma cell lines HuCCT1, HuCCA1, and KKU213 were obtained from the JCRB Cell Bank. The HepG2 and KKU213 cells were cultured in a Dulbecco's modified Eagle's medium (DMEM; Nacalai Tesque, Inc., Japan) having added thereto 10% heat-inactivated fetal calf serum (FCS; Gibco, USA). The HuCCT1 cells were cultured in an RPMI medium (Nacalai Tesque, Inc., Japan) containing 10% FCS. The HuCCA1 cells were cultured in D-MEM/Ham's F-12 (containing L-glutamine and phenol red) (Wako Pure Chemical Industries, Ltd., Japan) having added thereto 10% FCS. All the cells were cultured with a CO2 incubator at 37° C. The cells were detached with trypsin (Nacalai Tesque, Inc., Japan), and were passaged. Those cells were routinely examined for mycoplasma.
(§3) The transfection of siRNA or a plasmid into cells was performed with Lipofectamine RNAiMAX Transfection Reagent (Thermo Fisher Scientific, Inc., USA) or Lipofectamine 2000 (Thermo Fisher Scientific, Inc., USA), respectively, and with Opti-MEM (Thermo Fisher Scientific, Inc., USA). The transfection of the siRNA was performed as follows: the cells were dispersed at a concentration of 100,000 cells/mL; 10 μM of the siRNA was mixed into 100 μL of the Opti-MEM at a ratio of 1 μL, and the mixture was left at rest for 5 minutes; and then 3 μL of the RNAiMAX was mixed into the mixture, and the whole was left at rest for 15 minutes, followed by administration to the supernatant of the previously dispersed cells. Further, a medium change was performed 24 hours thereafter.
as §1
(§4) Two kinds of NIK siRNA (the NIK KD #1 and the NIK KD #2) were introduced into each of human cholangiocarcinoma cell lines HuCCT1, HuCCA1, and KKU213 to knock down MAP3K14 (NIK). […]

[3] = tested on: human cholangiocarcinoma cell line HuCCA1; assay: Cell proliferation assay (IncuCyte) of cholangiocarcinoma cell line HuCCA1; type: cell-based
Experimental: as §2, §3, §1, §4

[4] = tested on: human cholangiocarcinoma cell line KKU213; assay: Cell proliferation assay (IncuCyte) of cholangiocarcinoma cell line KKU213; type: cell-based
Experimental: as §2, §3, §1, §4

[5] = NIK siRNA transfected, cell growth curve FIG. 14B

Compound | increase in proliferation rate of the HepG2 cell by knockdown of TRAF3 and PTEN ([1]; NIKSMI 9 μM, cell growth curve FIG. 14A) | proliferation of cholangiocarcinoma cells ([2]; 9 μM or 15 μM added at beginning of culture, FIG. 21A) | proliferation of cholangiocarcinoma cells ([3]; 9 μM or 15 μM added at beginning of culture, FIG. 21B) | proliferation of cholangiocarcinoma cells ([4]; 9 μM or 15 μM added at beginning of culture, FIG. 21C) | increase in proliferation rate of the HepG2 cell by knockdown of TRAF3 and PTEN [1, 5] | proliferation of cholangiocarcinoma cells ([2]; NIK siRNA introduced, FIG. 18) | proliferation of cholangiocarcinoma cells ([3]; NIK siRNA introduced, FIG. 19) | proliferation of cholangiocarcinoma cells ([4]; NIK siRNA introduced, FIG. 20)
COc1cc(C(N)=O)nc(-c2cccc(C#C[C@]3(O)CCN(C)C3=O)c2)c1 [NIKSMI, (R)-6-(3-((3-hydroxy-1-methyl-2-oxopyrrolidin-3-yl)ethynyl)phenyl)-4-methoxypicolinamide] | blocked | significantly suppressed | significantly suppressed | significantly suppressed | – | – | – | –
NIK KD #1: siRNA of NIK, SEQ ID NO: 2 (sense) and 3 (antisense), from Thermo Fisher Scientific (sense CAAACGCAAAGAGCAAGAAUU; antisense UUCUUGCUCUUUGCGUUUGCA; listed as RNA, chemistry not given here) | – | – | – | – | blocked | significantly suppressed | significantly suppressed | significantly suppressed
NIK KD #2: siRNA of NIK, SEQ ID NO: 4 (sense) and 5 (antisense), from Thermo Fisher Scientific (sense GCAAAGAGCAAGAACCAAAUU; antisense UUUGGUUCUUGCUCUUUGCGU; listed as RNA, chemistry not given here) | – | – | – | – | blocked | significantly suppressed | significantly suppressed | significantly suppressed
